These are literature values, as cited in US7459569B2, “Method of forming iron hydroxypyrone compounds” (Vitra Pharmaceuticals Limited, priority 2002, dated 2008).

For this series the following is noted: given on an empty stomach.

As for `O=S(=O)([O-])[O-].[Fe+2]` [ferrous sulphate], the absorption rate is on record as 30%.
